Assay results published in patent US20220289728A1, “MODULATORS OF TREX1” (Constellation Pharmaceuticals, Inc., priority 2019, published 2022).

Columns and labels:
[1] = biological target: T1, full length human TREX1 (Homo sapiens, UniProt Q9NSU2); test: TREX1 Biochemical Assay (fluorescence, dsDNA substrate degradation); details: 150 pM TREX1, 60 nM dsDNA substrate, 25 minutes at room temperature
T1 construct: N-terminally His-Tev tagged full length human TREX1; His-TEV (His tag with TEV site) (N); made in house; host or cells: E. coli
T1 sequence (Q9NSU2 1-314): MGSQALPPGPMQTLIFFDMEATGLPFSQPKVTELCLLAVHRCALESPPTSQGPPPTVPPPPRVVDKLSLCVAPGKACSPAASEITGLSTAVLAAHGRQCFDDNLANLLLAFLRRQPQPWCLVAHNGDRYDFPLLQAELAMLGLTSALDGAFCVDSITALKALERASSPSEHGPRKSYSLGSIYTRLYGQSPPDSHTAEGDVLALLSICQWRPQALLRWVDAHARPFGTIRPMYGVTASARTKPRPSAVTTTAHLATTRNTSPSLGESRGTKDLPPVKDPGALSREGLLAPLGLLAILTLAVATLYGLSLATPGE
Protocol: Degradation of the dsDNA liberates free fluorophore to produce a fluorescent signal. Specifically, 7.5 μL of N-terminally His-Tev tagged full length human TREX1 (expressed in E. coli and purified in house) in reaction buffer (50 mM Tris (pH 7.4), 150 mM NaCl, 2 mM DTT, 0.1 mg/mL BSA, 0.01% (v/v) Tween-20 and 100 mM MgCl2) was added to a 384-well Black ProxiPlate Plus (Perkin Elmer) which already contained compound (150 nL) at varying concentrations as a 10 point dose-response in DMSO. To this was added 7.5 μL of dsDNA substrate (Strand A: 5′ TEX615/GCT AGG CAG 3′; Strand B: 5′ CTG CCT AGC/IAbRQSp (Integrated DNA Technologies)) in reaction buffer. Final concentrations were 150 pM TREX1, 60 nM dsDNA substrate in reaction buffer with 1.0% DMSO (v/v). After 25 minutes at room temperature, reactions were quenched by the addition of 5 μL of stop buffer (same as reaction buffer plus 200 mM EDTA). Final concentrations in the quenched reaction were 112.5 pM TREX1, 45 nM DNA and 50 mM EDTA in a volume of 20 μL. After a 5-minute incubation at room temperature, plates were read in a laser sourced Envision (Perkin-Elmer), measuring fluorescence at 615 nm following excitation w/570 nm light. IC50 values were calculated by comparing the measured fluorescence at 615 nm ratio relative to control wells pre-quenched w/stop buffer (100% inhibition) and no inhibitor (0% inhibition) controls as using non-linear least square four parameter fits and either Genedata or GraphPad Prism (GraphPad Software, Inc.).

[2] = biological target: T2, human TREX2 (residues M44-A279) (Homo sapiens, UniProt Q9BQ50); test: TREX2 Biochemical Assay (fluorescence, dsDNA substrate degradation); details: 2.5 nM TREX2, 60 nM dsDNA substrate, 25 minutes at room temperature
T2 construct: human TREX2 (residues M44-A279, expressed in E. coli); His-TEV (His tag with TEV site) (N); made in house; host or cells: E. coli
T2 sequence (Q9BQ50 44-279 isoform Q9BQ50-1): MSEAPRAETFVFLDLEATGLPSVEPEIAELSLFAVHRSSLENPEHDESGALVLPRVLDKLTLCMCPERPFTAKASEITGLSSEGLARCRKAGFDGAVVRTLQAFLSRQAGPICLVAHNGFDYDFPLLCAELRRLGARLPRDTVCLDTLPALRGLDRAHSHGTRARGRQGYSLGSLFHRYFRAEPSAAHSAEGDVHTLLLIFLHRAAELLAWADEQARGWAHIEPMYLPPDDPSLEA
Protocol: Degradation of the dsDNA liberates free fluorophore to produce a fluorescent signal. Specifically, 7.5 μL of N-terminally His-Tev tagged human TREX2 (residues M44-A279, expressed in E. coli and purified in house) in reaction buffer (50 mM Tris (pH 7.4), 150 mM NaCl, 2 mM DTT, 0.1 mg/mL BSA, 0.01% (v/v) Tween-20 and 100 mM MgCl2) was added to a 384-well Black ProxiPlate Plus (Perkin Elmer) which already contained compound (150 nL) at varying concentrations as a 10 point dose-response in DMSO. To this was added 7.5 μL of dsDNA substrate (Strand A: 5′ TEX615/GCT AGG CAG 3′; Strand B: 5′ CTG CCT AGC/IAbRQSp (IDT)) in reaction buffer. Final concentrations were 2.5 nM TREX2, 60 nM dsDNA substrate in reaction buffer with 1.0% DMSO (v/v). After 25 minutes at room temperature, reactions were quenched by the addition of 5 μL of stop buffer (same as reaction buffer plus 200 mM EDTA). Final concentrations in the quenched reaction mixture were […] TREX2, 45 nM DNA and 50 mM EDTA in a volume of 20 μL. After a 5-minute incubation at room temperature, plates were read in a laser sourced Envision (Perkin-Elmer), measuring fluorescence at 615 nm following excitation w/570 nm light. IC50 values were calculated by comparing the measured fluorescence at 615 nm ratio relative to control wells pre-quenched w/stop buffer (100% inhibition) and no inhibitor (0% inhibition) controls as using non-linear least square four parameter fits and either Genedata or GraphPad Prism (GraphPad Software, Inc.).

[3] = tested on: HCT116 dual cells; test: HCT116 Cell Assay (Lucia luciferase reporter of Type I interferon induction); format: cell-based, human; details: pBR322/BstNI DNA transfection, Lucia luciferase at 48 h, relative to 10 uM compound 39
Excerpt: HCT116 dual cells (Invivogen, San Diego, Calif., USA) are derived from the human HCT116 colorectal carcinoma cell line. Cells have been selected for the stable integration of SEAP and Luciferase reporter genes, which expression is under the control of 5 tandem response elements for NF-KB/AP1 and STAT1/STAT2, respectively. The cell line was used to monitor Type I interferon induction and subsequent signaling by measuring the activity of the Lucia luciferase secreted in the culture medium.
HCT116 cells were plated in 96-well plate(s) at 40,000 cells/well in 100 uL DMEM supplemented with 10% FBS and 25 mM Hepes (pH 7.2-7.5). After overnight settling, cells were treated with TREX1i for 4 h (maximum DMSO fraction was 0.1%) before 1.25 ug/mL pBR322/BstNI restriction digest (New England Biolabs, Ipswich, Mass., USA) was transfected with Lipofectamine LTX (ThermoFisher, Grand Island, N.Y., USA), according to product manual recommendations. Briefly, Lipofectamine LTX (0.4 uL/well) was diluted in OptiMEM (5 uL/well). pBR322/BstNI (100 ng/well) was diluted in OptiMEM (5 uL/well) before Plus reagent (0.1 uL/100 ng DNA) was added. After 5 min incubation at room temperature, the DNA mixture was mixed dropwise with the diluted Lipofectamine LTX. After an additional 10 min incubation, the transfection mix (10 uL/well) was added to the cells. Cells were maintained at 37° C. for 48 h before monitoring the Lucia Luciferase activity from the cell culture medium. EC50 values were calculated by comparing the measured luminescence relative to 10 uM compound 39 (100% inhibition) and no inhibitor (0% inhibition) controls using non-linear least-squares four parameter fits in either Genedata Screener or GraphPad Prism (GraphPad Software, Inc.).

[4] = Homo sapiens, HCT-116, 4 h pre-treatment

Structure (SMILES)	IC50 [1] [µM]	IC50 [2] [µM]	EC50 [3, 4] [µM]	EC50 ([3]; 4 h pre-treatment) [µM]
CN(c1nc(C(=O)Nc2cnoc2)c(O)c(=O)n1C)C(c1ccccc1)c1ccccc1C#N (single isomer, unassigned) [Example 85]	< 0.1	< 1	< 1	–
CN(c1nc(C(=O)Nc2cnoc2)c(O)c(=O)n1C)C(c1ccccc1)c1ccccc1C#N (single isomer, unassigned) [Example 86]	< 0.1	< 1	–	< 1
CN(c1nc(C(=O)Nc2cnoc2)c(O)c(=O)n1C)C(c1ccccc1)c1cc(F)ccc1Cl (single isomer, unassigned) [Example 87]	< 0.1	< 1	< 1	–
CN(c1nc(C(=O)Nc2cnoc2)c(O)c(=O)n1C)C(c1ccccc1)c1cc(F)ccc1Cl (single isomer, unassigned) [Example 88]	< 0.1	< 1	–	< 1
Cc1cc(C(c2ccccc2Cl)N(C)c2nc(C(=O)Nc3cnoc3)c(O)c(=O)n2C)ccn1 (single isomer, unassigned) [Example 89]	< 0.1	< 1	< 1	–
Cc1cc(C(c2ccccc2Cl)N(C)c2nc(C(=O)Nc3cnoc3)c(O)c(=O)n2C)ccn1 (single isomer, unassigned) [Example 90]	< 0.1	< 1	–	1 to 10
CCN(c1nc(C(=O)Nc2cnoc2)c(O)c(=O)n1C)C(c1ccccc1)c1ccccc1Cl (single isomer, unassigned) [Example 91]	< 0.1	< 1	1 to 10	–
CCN(c1nc(C(=O)Nc2cnoc2)c(O)c(=O)n1C)C(c1ccccc1)c1ccccc1Cl (single isomer, unassigned) [Example 92]	< 0.1	< 1	–	1 to 10
CN(C)C(=O)c1ccc(C(c2ccccc2)N(C)c2nc(C(=O)Nc3cnoc3)c(O)c(=O)n2C)c(Cl)c1 (single isomer, unassigned) [Example 93]	< 0.1	1 to 10	1 to 10	–
CN(C)C(=O)c1ccc(C(c2ccccc2)N(C)c2nc(C(=O)Nc3cnoc3)c(O)c(=O)n2C)c(Cl)c1 (single isomer, unassigned) [Example 94]	< 0.1	< 1	–	< 1
CN(c1nc(C(=O)Nc2cnoc2)c(O)c(=O)n1C)C(c1cccc(C#N)c1)c1ccccc1Cl (single isomer, unassigned) [Example 95]	< 0.1	< 1	< 1	–
CN(c1nc(C(=O)Nc2cnoc2)c(O)c(=O)n1C)C(c1cccc(C#N)c1)c1ccccc1Cl (single isomer, unassigned) [Example 96]	< 0.1	< 1	–	1 to 10
CN(Cc1ccccc1)c1nc(C(=O)Nc2cnoc2)c(O)c(=O)n1C [Example 2]	< 0.1	1 to 10	1 to 10	–
CN(Cc1c(Cl)cccc1Cl)c1nc(C(=O)Nc2cnoc2)c(O)c(=O)n1C [Example 4]	< 0.1	< 1	1 to 10	–
CN(Cc1cc(Cl)ccc1Cl)c1nc(C(=O)Nc2cnoc2)c(O)c(=O)n1C [Example 5]	< 0.1	1 to 10	1 to 10	–
CN(Cc1ccc(Cl)cc1Cl)c1nc(C(=O)Nc2cnoc2)c(O)c(=O)n1C [Example 6]	< 0.1	1 to 10	1 to 10	–
CN(Cc1ccc(Cl)c(Cl)c1)c1nc(C(=O)Nc2cnoc2)c(O)c(=O)n1C [Example 7]	< 0.1	1 to 10	1 to 10	–
CN(Cc1cccc(Cl)c1)c1nc(C(=O)Nc2cnoc2)c(O)c(=O)n1C [Example 8]	< 0.1	1 to 10	1 to 10	–
CN(Cc1ccc(Cl)cc1)c1nc(C(=O)Nc2cnoc2)c(O)c(=O)n1C [Example 9]	< 0.1	10 to 100	10 to 100	–
CN(Cc1cccc(C(F)(F)F)c1)c1nc(C(=O)Nc2cnoc2)c(O)c(=O)n1C [Example 10]	< 0.1	1 to 10	10 to 100	–
CN(Cc1ccccc1C(F)(F)F)c1nc(C(=O)Nc2cnoc2)c(O)c(=O)n1C [Example 11]	< 0.1	1 to 10	1 to 10	–
